Read-outs that look alike come from different tables or passages of the source.
How the values were obtained:
HepG2 cells = tested on: HepG2 cells; set-up: method as in earlier work; details: free fatty acid mixture (oleate:palmitate = 2:1); cited from earlier work
DSS-induced colitis = tested on: DSS-induced colitis; set-up: method as in PMID 30917627; details: ip every other day 0.4 and 4 mg/kg; cited from earlier work
CYP2C19 and 3A4 = details: cited from earlier work
carboxyesterase-2 (CES2) = details: cited from earlier work
CDK3/cyclin E = biological target: T1, CDK3/cyclin E (Homo sapiens, UniProt Q00526); assay: Reaction Biology kinase activity inhibition; format: biochemical; details: initial screening
T1 construct: purchased Reaction Biology
Outline: (§1)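 γ-^33P-ATP radioisotope readout; >600 protein/lipid kinase panel screen; IC50 confirmation from 5-point concentration series, curve-fitted.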

CLK4 = biological target: T2, CLK4 (Homo sapiens, UniProt Q9HAZ1); assay: Reaction Biology kinase activity inhibition; format: biochemical; details: initial screening
T2 construct: purchased Reaction Biology
Outline: as §1

JNK2 = biological target: T3, JNK2 (Homo sapiens, UniProt P45984); assay: Reaction Biology kinase activity inhibition; format: biochemical; details: initial screening
T3 construct: purchased Reaction Biology
Outline: as §1

LRRK2 (G2019S) = biological target: T4, LRRK2 (G2019S) (Homo sapiens, UniProt Q5S007, G2019S); assay: Reaction Biology kinase activity inhibition; format: biochemical; details: initial screening
T4 construct: purchased Reaction Biology
Outline: as §1

MKK7 (MAPK9) = biological target: T5, MKK7 (MAPK9) (Homo sapiens, UniProt O14733); assay: Reaction Biology kinase activity inhibition; format: biochemical; details: initial screening
T5 construct: purchased Reaction Biology
T5 sequence (O14733 2-419 limits assumed): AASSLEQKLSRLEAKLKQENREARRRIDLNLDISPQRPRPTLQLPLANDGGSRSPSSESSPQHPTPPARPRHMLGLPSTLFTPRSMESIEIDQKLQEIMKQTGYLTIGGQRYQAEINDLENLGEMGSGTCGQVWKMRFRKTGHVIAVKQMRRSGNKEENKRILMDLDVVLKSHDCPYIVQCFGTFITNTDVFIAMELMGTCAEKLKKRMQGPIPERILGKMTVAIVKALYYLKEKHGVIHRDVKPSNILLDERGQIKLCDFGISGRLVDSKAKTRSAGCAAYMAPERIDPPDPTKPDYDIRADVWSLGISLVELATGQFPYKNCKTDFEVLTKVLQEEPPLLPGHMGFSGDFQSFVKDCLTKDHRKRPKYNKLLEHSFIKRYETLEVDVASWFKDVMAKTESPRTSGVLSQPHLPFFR
Outline: as §1

PKCzeta = biological target: T6, PKCzeta (Homo sapiens, UniProt Q05513); assay: Reaction Biology kinase activity inhibition; format: biochemical; details: initial screening
T6 construct: purchased Reaction Biology
Outline: as §1

TYK2 = biological target: T7, TYK2 (Homo sapiens, UniProt P29597); assay: Reaction Biology kinase activity inhibition; format: biochemical; details: initial screening
T7 construct: purchased Reaction Biology
Outline: as §1

c-Kit (D816H) = biological target: T8, c-Kit (D816H) (Homo sapiens, UniProt P10721, D816H); assay: Reaction Biology kinase activity inhibition; format: biochemical; details: initial screening
T8 construct: purchased Reaction Biology
Outline: as §1

c-MET (Y1235D) = biological target: T9, c-MET (Y1235D) (Homo sapiens, UniProt P08581, Y1235D); assay: Reaction Biology kinase activity inhibition; format: biochemical; details: initial screening
T9 construct: purchased Reaction Biology
Outline: as §1

AChE = tested on: AChE; set-up: method as in PMID 11374978; details: read-out: AChE inhibition IC50; cited from earlier work
acute pain models = tested on: acute pain models; set-up: method as in PMID 12759141; details: cited from earlier work
[1] = tested on: acute thermal pain models and CINP; set-up: method as in PMID 36249788; details: cited from earlier work
[2] = tested on: acetic acid-induced writhing; set-up: method as in PMID 19557373; details: cited from earlier work
[3] = tested on: serotonin (5-hydroxytryptamine) level; set-up: method as in PMID 19801740; details: DOH gavage, highest at 10 mg DOH/kg in frontal cortex and striatum; cited from earlier work
[4] = tested on: BOCCA and MCAO ischemic damage; set-up: method as in PMID 19801740; details: 20 mg/kg, pre or post-treatment; cited from earlier work
experimental sepsis = tested on: experimental sepsis; set-up: method as in PMID 20157398; details: ip 1 ~ 100 mg/kg before LPS/GalN or high-dose LPS (20 mg/kg); cited from earlier work
CDK9 = CDK9 (Homo sapiens, UniProt P50750); assay: Reaction Biology kinase activity inhibition; format: biochemical; set-up: purchased Reaction Biology (Malvern, PA); details: activity screening, DOH at 50 μM
Description: The second screening was the Reaction Biology® (Malvern, PA) kinase activity inhibition tests, which screened for more than 600 protein kinases and lipid kinases, using miniaturized radioisotope-based assay platform with γ-^33P-ATP, followed by confirmation with IC50 kinase profiling service with 5 concentrations of test compound (i.e., DOH and DA) with curve fitting.

[5] = DOH (50 µM), Data 1 and Data 2, read-out: % Enzyme Activity (relative to DMSO controls)

T2 sequence (Q9HAZ1 whole entry): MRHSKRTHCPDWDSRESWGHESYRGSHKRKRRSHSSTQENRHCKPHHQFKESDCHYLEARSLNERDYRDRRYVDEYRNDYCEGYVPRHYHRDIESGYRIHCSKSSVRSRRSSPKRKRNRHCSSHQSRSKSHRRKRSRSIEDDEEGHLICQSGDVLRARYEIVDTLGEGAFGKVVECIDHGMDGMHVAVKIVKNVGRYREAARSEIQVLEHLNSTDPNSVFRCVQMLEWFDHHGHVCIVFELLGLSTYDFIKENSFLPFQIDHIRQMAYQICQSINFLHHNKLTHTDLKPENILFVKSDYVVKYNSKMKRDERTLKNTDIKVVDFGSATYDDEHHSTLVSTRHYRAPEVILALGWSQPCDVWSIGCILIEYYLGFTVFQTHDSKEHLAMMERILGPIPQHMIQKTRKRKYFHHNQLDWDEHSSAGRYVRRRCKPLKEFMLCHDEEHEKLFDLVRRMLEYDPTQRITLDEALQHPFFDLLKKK
T3 sequence (P45984 whole entry): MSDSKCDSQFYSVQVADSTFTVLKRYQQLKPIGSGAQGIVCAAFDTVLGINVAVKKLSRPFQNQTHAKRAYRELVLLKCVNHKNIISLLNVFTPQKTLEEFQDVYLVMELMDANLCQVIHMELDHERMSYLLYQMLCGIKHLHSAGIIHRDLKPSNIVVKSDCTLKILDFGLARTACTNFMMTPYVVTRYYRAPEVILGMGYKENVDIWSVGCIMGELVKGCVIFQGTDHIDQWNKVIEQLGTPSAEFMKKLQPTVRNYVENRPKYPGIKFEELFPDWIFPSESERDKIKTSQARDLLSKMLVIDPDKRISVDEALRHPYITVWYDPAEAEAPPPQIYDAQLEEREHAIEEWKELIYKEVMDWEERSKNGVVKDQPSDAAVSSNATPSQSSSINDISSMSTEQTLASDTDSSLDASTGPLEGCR
T7 sequence (P29597 whole entry): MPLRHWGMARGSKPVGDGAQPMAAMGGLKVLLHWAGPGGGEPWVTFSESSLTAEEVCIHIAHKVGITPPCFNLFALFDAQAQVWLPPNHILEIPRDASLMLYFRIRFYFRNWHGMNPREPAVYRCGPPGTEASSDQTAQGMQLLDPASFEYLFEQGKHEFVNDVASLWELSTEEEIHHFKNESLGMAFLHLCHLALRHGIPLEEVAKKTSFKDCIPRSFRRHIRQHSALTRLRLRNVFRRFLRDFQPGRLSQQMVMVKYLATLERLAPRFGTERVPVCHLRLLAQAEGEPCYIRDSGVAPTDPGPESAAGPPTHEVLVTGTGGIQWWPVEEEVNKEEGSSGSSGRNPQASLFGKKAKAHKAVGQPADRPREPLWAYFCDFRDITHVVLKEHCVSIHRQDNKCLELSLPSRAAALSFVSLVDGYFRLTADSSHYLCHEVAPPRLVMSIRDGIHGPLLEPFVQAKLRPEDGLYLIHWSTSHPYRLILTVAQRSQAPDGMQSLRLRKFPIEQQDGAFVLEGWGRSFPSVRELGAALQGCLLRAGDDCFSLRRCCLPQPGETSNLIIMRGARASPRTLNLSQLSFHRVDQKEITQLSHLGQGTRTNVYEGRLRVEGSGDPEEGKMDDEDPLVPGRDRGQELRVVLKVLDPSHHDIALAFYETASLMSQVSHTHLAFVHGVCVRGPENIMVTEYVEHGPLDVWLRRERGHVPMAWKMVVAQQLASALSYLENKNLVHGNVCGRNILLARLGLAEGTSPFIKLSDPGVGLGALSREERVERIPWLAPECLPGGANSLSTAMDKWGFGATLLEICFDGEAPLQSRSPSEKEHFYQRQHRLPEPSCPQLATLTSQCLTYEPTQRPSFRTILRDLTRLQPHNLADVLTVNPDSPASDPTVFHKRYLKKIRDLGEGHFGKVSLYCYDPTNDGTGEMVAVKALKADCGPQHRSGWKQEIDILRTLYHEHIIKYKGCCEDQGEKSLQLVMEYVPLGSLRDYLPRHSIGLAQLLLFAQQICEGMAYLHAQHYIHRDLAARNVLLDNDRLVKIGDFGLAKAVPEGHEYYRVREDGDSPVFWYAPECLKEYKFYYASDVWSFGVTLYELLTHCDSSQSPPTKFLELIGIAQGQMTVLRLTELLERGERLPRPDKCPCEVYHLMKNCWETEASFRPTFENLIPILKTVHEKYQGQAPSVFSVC
T8 sequence (P10721 26-976 D816H): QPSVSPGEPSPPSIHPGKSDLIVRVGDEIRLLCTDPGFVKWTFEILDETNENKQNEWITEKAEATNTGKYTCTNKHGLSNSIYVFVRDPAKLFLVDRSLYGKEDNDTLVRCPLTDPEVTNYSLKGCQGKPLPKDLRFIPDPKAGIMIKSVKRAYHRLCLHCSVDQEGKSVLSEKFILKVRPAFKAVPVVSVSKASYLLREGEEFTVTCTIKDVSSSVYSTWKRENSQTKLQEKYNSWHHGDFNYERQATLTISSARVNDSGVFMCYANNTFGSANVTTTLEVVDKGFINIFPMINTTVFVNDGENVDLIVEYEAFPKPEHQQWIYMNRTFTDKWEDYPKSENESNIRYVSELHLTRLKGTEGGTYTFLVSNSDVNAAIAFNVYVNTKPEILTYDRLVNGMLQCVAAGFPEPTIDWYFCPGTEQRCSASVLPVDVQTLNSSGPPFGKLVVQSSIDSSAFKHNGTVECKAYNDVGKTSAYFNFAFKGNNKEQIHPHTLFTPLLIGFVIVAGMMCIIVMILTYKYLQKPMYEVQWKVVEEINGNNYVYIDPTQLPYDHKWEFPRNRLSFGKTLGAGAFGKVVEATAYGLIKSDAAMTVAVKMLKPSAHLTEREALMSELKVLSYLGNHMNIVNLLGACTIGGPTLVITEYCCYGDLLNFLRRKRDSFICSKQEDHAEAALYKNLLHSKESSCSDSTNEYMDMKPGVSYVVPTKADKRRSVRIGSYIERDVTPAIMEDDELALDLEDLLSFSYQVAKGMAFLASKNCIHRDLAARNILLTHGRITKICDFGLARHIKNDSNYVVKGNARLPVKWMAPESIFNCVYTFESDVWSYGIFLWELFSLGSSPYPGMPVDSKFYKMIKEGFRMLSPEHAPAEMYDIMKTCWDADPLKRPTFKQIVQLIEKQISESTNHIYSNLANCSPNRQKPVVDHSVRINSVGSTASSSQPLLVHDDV
T1 sequence (Q00526 whole entry): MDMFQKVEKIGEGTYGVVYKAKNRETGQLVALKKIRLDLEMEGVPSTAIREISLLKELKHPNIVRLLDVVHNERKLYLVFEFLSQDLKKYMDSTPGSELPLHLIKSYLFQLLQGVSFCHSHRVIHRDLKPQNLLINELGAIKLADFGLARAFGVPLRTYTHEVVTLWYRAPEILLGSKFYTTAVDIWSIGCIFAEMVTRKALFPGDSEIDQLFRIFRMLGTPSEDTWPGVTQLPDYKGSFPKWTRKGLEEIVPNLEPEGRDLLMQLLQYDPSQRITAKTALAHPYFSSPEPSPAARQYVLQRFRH
T1 sequence (P24864 whole entry partner): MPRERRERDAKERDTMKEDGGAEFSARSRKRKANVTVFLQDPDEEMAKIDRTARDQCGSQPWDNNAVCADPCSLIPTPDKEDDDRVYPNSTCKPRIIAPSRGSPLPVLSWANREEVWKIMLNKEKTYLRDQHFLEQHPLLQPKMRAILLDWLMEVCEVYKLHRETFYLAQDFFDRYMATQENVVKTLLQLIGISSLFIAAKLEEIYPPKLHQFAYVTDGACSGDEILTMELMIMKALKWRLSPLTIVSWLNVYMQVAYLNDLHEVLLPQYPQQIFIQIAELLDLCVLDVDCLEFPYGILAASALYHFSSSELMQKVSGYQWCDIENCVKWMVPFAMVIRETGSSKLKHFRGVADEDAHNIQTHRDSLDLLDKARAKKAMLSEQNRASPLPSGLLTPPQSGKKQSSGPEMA
T6 sequence (Q05513 whole entry): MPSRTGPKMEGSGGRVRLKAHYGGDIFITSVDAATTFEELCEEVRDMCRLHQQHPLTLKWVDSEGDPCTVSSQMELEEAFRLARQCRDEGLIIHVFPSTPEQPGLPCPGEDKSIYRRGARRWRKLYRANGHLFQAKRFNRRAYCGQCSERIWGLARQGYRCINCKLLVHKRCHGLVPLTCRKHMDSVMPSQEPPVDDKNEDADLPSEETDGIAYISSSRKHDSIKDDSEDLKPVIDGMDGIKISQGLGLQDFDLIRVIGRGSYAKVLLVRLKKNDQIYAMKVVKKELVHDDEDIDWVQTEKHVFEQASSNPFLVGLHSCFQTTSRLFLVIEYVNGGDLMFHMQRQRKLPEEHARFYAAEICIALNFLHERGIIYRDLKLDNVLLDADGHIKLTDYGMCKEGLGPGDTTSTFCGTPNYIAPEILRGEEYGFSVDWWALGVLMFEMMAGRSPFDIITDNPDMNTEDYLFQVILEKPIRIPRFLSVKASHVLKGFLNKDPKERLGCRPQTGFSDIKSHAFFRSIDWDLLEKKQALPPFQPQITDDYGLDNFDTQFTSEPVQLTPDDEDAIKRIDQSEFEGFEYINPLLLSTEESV

In the case of C/C=C(/C)C(=O)O[C@H]1Cc2cc3ccc(=O)oc3cc2OC1(C)C [DA, decursinol angelate], the lipid accumulation (HepG2 cells) is listed as “suppressed lipid accumulation”, the severity of colitis (DSS-induced colitis) is listed as “attenuated the severity of colitis” and the “Cyp isoforms for metabolism to DOH” value (CYP2C19 and 3A4) is listed as “major human isoforms”. For the same compound, the “CES2 contribution to metabolism to DOH” value (carboxyesterase-2 (CES2)) was “not”.

With CC1(C)Oc2cc3oc(=O)ccc3cc2C[C@@H]1O [DOH, decursinol] the inhibition at 50 µM (CDK3/cyclin E; DOH 50 µM) was 30.3%, the “% Enzyme Activity (relative to DMSO controls)” value (CDK3/cyclin E; DOH (50 µM), Data 1 and Data 2) was 69.4% and the remaining activity at 50 µM (CDK3/cyclin E; [5]) was 70%. The inhibition at 50 µM (CLK4; DOH 50 µM) was 25.7%, the “% Enzyme Activity (relative to DMSO controls)” value (CLK4; DOH (50 µM), Data 1 and Data 2) was 74.0% and the remaining activity at 50 µM (CLK4; [5]) was 74.8%. For the same compound, the inhibition at 50 µM (JNK2; DOH 50 µM) was 29%, the “% Enzyme Activity (relative to DMSO controls)” value (JNK2; DOH (50 µM), Data 1 and Data 2) was 70.1% and the remaining activity at 50 µM (JNK2; [5]) was 72%. The inhibition at 50 µM (LRRK2 (G2019S); DOH 50 µM) was 26.8%, the “% Enzyme Activity (relative to DMSO controls)” value (LRRK2 (G2019S); DOH (50 µM), Data 1 and Data 2) was 73.0% and the remaining activity at 50 µM (LRRK2 (G2019S); [5]) was 73.4%. For the same compound, the inhibition at 50 µM (MKK7 (MAPK9); DOH 50 µM) was 36.5%, the “% Enzyme Activity (relative to DMSO controls)” value (MKK7 (MAPK9); DOH (50 µM), Data 1 and Data 2) was 61.2% and the remaining activity at 50 µM (MKK7 (MAPK9); [5]) was 65.9%. It also gave an inhibition at 50 µM (PKCzeta; DOH 50 µM) of 27.1%, a remaining activity at 50 µM (PKCzeta; [5]) of 72.9% and an inhibition at 50 µM (TYK2; DOH 50 µM) of 32.4%. The “% Enzyme Activity (relative to DMSO controls)” value (TYK2; DOH (50 µM), Data 1 and Data 2) was 62.8%, the remaining activity at 50 µM (TYK2; [5]) was 72.3% and the inhibition at 50 µM (c-Kit (D816H); DOH 50 µM) was 25.5%. The “% Enzyme Activity (relative to DMSO controls)” value (c-Kit (D816H); DOH (50 µM), Data 1 and Data 2) was 66.8%, the remaining activity at 50 µM (c-Kit (D816H); [5]) was 82.2% and the inhibition at 50 µM (c-MET (Y1235D); DOH 50 µM) was 30.7%. The “% Enzyme Activity (relative to DMSO controls)” value (c-MET (Y1235D); DOH (50 µM), Data 1 and Data 2) was 69.0%, the remaining activity at 50 µM (c-MET (Y1235D); [5]) was 69.5% and the IC50 (AChE) was 28 µM. The “anti-nociceptive ED50” value (acute pain models; gavaged DOH 5 to 200 mg/kg) was ~ 50 mg/kg, the “peak time of anti-nociceptive efficacy” value (acute pain models; post dose) was 30 min and the “hypothermia and sedation (ataxia)” value [1] was “dose dependent hypothermia”. For the same compound, the “antinociception in hot plate and tail-flick assays” value ([1]; ip DOH 50 mg/kg) was “replicated antinociception effects”, the “mechanical allodynia of mice with cisplatin-neuropathy (Von Fry test)” value ([1]; ip DOH 50 mg/kg) was “reversed the mechanical allodynia” and the “time to tolerance development” value ([1]; once-daily ip, hot plate, tail-flick and CINP mice) was ~ 10 days. The analgesic effect ([2]; oral 50 mg/kg) was “efficacious”, the analgesic effect ([2]; oral 25 or 10 mg/kg) was “not at 25 or 10 mg/kg” and the “serotonin (5-hydroxytryptamine) level in brain” value [3] was “increase”. For the same compound, the “protection against ischemia stroke models” value [4] was “failed to protect”, the “reduction of sepsis lethality ED50” value (experimental sepsis) was ~ 10 mg/kg and the “inhibition of kinase activity” value (CDK9) was “no inhibition”.

— publication PMC11785709, “Angelica gigas Nakai (Korean Dang-gui) Root Alcoholic Extracts in Health Promotion and Disease Therapy – active Phytochemicals and In Vivo Molecular Targets” (Pharmaceutical Research, 2025)
